# Experimental data reported in paper PMC10882719 (Frontiers in Neuroscience, 2024).
# Read-outs that look alike come from different tables or passages of the source.
# Experiments:
# Assay type in all cases: cell-based
# 168 GPCRs [1] = target: T1, 168 GPCRs (Homo sapiens, UniProt P41586)
# T1 construct: host or cells: PathHunter cell lines
# T1 sequence (P41586 21-468): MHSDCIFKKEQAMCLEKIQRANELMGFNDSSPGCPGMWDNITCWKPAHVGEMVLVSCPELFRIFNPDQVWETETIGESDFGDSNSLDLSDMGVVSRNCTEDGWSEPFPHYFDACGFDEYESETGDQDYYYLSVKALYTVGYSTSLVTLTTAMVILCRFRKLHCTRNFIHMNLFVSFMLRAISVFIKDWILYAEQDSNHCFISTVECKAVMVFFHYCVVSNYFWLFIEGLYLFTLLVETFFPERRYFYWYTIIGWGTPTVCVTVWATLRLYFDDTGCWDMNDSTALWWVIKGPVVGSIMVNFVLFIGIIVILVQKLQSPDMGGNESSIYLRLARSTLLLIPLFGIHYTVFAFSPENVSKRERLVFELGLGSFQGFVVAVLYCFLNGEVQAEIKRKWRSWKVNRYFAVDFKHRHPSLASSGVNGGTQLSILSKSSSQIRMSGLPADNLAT
# 168 GPCRs [2] = target: T2, 168 GPCRs (Homo sapiens, UniProt P41231); settings: P2RY2
# T2 construct: host or cells: PathHunter cell lines
# 168 GPCRs [3] = target: T3, 168 GPCRs (Homo sapiens, UniProt Q8NFJ6); settings: PROKR2
# T3 construct: host or cells: PathHunter cell lines
# 168 GPCRs [4] = target: T4, 168 GPCRs (Homo sapiens, UniProt P21917)
# T4 construct: host or cells: PathHunter cell lines
# T4 sequence (P21917 1-419): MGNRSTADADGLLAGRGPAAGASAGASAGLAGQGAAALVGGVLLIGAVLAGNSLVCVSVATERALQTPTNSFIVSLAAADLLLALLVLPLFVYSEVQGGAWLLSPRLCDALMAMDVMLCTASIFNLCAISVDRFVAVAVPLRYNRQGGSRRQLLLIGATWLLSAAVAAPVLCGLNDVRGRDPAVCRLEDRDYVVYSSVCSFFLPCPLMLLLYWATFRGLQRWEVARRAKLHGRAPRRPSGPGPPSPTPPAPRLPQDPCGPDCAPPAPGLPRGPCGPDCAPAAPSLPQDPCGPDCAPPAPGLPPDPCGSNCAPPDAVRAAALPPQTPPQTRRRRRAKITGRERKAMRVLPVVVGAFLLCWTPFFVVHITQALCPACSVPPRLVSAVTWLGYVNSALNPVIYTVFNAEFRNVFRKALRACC
# 168 GPCRs [5] = target: T5, 168 GPCRs (Homo sapiens, UniProt Q99500)
# T5 construct: host or cells: PathHunter cell lines
# 168 GPCRs [6] = target: T6, 168 GPCRs (Homo sapiens, UniProt P41968); settings: MC3R
# T6 construct: host or cells: PathHunter cell lines
# 168 GPCRs [7] = target: T7, 168 GPCRs (Homo sapiens, UniProt Q9Y5N1)
# T7 construct: host or cells: PathHunter cell lines
# 168 GPCRs [8] = target: T8, 168 GPCRs (Homo sapiens, UniProt P08172)
# T8 construct: host or cells: PathHunter cell lines
# T8 sequence (P08172 1-466): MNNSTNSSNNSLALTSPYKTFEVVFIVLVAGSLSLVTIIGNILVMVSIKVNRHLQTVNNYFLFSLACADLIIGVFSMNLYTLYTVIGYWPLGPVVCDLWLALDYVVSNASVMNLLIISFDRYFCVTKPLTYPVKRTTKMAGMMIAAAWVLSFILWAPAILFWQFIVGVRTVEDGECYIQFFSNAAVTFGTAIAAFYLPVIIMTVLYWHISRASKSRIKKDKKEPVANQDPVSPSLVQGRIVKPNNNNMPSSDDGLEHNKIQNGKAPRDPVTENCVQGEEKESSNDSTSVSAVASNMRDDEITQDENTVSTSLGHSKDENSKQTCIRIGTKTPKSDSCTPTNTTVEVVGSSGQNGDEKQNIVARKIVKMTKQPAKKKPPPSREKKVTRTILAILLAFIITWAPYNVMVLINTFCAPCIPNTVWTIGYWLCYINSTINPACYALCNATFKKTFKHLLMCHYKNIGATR
# 168 GPCRs [9] = target: T9, 168 GPCRs (Homo sapiens, UniProt Q99705)
# T9 construct: host or cells: PathHunter cell lines
# T9 sequence (Q99705 whole entry): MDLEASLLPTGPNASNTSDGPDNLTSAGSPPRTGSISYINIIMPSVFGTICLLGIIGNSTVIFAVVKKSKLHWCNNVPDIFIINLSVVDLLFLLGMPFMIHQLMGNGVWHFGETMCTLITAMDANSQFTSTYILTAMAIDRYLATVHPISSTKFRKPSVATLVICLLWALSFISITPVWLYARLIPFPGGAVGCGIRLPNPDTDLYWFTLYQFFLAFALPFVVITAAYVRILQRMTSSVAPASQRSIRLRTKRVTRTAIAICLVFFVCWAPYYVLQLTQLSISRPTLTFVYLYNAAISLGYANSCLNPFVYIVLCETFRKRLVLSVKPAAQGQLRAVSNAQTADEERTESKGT
# T6 sequence (P41968 whole entry): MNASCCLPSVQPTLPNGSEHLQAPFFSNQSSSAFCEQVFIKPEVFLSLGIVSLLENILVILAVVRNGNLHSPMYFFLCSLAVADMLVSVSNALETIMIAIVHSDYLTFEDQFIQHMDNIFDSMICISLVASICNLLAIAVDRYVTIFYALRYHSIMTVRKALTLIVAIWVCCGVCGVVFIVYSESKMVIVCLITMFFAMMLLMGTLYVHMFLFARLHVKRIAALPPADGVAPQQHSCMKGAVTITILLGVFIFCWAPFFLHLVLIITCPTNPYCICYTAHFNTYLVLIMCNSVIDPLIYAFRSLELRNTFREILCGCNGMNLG
# T5 sequence (Q99500 whole entry): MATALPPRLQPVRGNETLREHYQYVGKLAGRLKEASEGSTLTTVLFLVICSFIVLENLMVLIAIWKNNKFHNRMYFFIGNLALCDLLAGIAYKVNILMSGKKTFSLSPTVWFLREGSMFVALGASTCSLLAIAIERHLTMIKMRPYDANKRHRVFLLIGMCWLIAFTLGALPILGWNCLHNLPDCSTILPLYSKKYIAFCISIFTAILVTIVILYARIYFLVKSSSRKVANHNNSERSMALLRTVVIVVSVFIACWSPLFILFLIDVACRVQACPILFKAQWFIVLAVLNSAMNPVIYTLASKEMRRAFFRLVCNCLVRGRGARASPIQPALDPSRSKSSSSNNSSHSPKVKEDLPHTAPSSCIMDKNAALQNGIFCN
# T7 sequence (Q9Y5N1 whole entry): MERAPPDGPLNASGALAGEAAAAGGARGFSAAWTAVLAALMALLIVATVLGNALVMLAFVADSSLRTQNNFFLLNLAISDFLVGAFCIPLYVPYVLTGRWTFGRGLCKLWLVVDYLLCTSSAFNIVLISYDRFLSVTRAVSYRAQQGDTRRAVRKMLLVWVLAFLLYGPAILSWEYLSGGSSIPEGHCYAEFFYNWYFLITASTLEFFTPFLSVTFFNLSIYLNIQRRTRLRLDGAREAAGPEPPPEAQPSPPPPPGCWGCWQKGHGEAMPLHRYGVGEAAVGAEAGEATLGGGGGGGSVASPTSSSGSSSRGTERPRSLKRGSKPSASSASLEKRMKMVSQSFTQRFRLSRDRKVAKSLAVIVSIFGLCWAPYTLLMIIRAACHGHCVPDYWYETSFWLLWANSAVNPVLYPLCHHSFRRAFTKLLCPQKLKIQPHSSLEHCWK
# T2 sequence (P41231 whole entry): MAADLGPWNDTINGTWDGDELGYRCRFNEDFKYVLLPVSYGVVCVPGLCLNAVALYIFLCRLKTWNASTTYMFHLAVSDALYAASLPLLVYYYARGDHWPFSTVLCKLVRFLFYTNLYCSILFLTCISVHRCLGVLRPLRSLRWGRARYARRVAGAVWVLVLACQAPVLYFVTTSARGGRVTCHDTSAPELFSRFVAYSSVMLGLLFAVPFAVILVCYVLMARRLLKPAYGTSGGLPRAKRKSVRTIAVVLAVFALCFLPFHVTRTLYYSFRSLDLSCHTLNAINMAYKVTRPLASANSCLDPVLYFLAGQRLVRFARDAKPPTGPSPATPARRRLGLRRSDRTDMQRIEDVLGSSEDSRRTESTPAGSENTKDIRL
# T3 sequence (Q8NFJ6 whole entry): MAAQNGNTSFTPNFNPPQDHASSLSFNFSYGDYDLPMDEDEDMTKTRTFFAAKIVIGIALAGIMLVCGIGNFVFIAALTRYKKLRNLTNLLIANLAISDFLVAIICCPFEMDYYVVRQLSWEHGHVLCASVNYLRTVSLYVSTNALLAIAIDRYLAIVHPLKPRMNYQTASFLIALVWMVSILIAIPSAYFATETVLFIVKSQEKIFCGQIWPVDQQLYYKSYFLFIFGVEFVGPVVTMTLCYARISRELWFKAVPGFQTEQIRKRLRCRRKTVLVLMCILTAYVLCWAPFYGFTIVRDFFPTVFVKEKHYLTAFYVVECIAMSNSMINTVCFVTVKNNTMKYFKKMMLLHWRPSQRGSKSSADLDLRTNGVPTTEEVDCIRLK
Compound,"% Agonist Activity (168 GPCRs [1]; ADCYAP1R1, 1 uM)","% Antagonist Activity (168 GPCRs [1]; ADCYAP1R1, 1 uM)","% Agonist Activity (168 GPCRs [1]; ADCYAP1R1, 10 uM)","% Antagonist Activity (168 GPCRs [1]; ADCYAP1R1, 10 uM)",% Agonist Activity (168 GPCRs [2]; Conc 1 uM),% Antagonist Activity (168 GPCRs [2]; Conc 1 uM),% Agonist Activity (168 GPCRs [2]; Conc 10 uM),% Antagonist Activity (168 GPCRs [2]; Conc 10 uM),% Agonist Activity (168 GPCRs [3]; Conc 1 uM),% Antagonist Activity (168 GPCRs [3]; Conc 1 uM),% Agonist Activity (168 GPCRs [3]; Conc 10 uM),% Antagonist Activity (168 GPCRs [3]; Conc 10 uM),"% Agonist Activity (168 GPCRs [4]; DRD4, 1 uM)","% Antagonist Activity (168 GPCRs [4]; DRD4, 1 uM)","% Agonist Activity (168 GPCRs [4]; DRD4, 10 uM)","% Antagonist Activity (168 GPCRs [4]; DRD4, 10 uM)","% Agonist Activity (168 GPCRs [5]; EDG3, 1 uM)","% Antagonist Activity (168 GPCRs [5]; EDG3, 1 uM)","% Agonist Activity (168 GPCRs [5]; EDG3, 10 uM)","% Antagonist Activity (168 GPCRs [5]; EDG3, 10 uM)",further results
"CNC(C)Cc1ccc2c(c1)OCO2 (stereo not drawn) [MDMA, 3,4-Methylenedioxy methamphetamine, reference compound]",-0.3%,-0.9%,-0.8%,-0.1%,6.6%,11.5%,7.8%,9.6%,-0.6%,14.4%,-0.3%,19.4%,-0.7%,14.9%,-0.1%,7.7%,-1.7%,8.8%,-1.1%,11%,"% Agonist Activity (168 GPCRs [6]; 1 uM): 0.7%; % Antagonist Activity (168 GPCRs [6]; 1 uM): 5.9%; % Agonist Activity (168 GPCRs [6]; 10 uM): 1.3%; % Antagonist Activity (168 GPCRs [6]; 10 uM): 1.9%; % Agonist Activity (168 GPCRs [7]; HRH3, 1 uM): -3.1%; % Antagonist Activity (168 GPCRs [7]; HRH3, 1 uM): 6.2%; % Agonist Activity (168 GPCRs [7]; HRH3, 10 uM): -2.6%; % Antagonist Activity (168 GPCRs [7]; HRH3, 10 uM): 22.6%; % Agonist Activity (168 GPCRs [8]; CHRM2, 1 uM): 0.9%; % Antagonist Activity (168 GPCRs [8]; CHRM2, 1 uM): -1%; % Agonist Activity (168 GPCRs [8]; CHRM2, 10 uM): 1.4%; % Antagonist Activity (168 GPCRs [8]; CHRM2, 10 uM): 10.5%; % Agonist Activity (168 GPCRs [9]; MCHR1, 1 uM): -4%; % Antagonist Activity (168 GPCRs [9]; MCHR1, 1 uM): 5.3%; % Agonist Activity (168 GPCRs [9]; MCHR1, 10 uM): -4.4%; % Antagonist Activity (168 GPCRs [9]; MCHR1, 10 uM): 2.1%"
CNC(C)C(=O)c1ccc2c(c1)OCO2 (stereo not drawn) [methylone],-4%,13.6%,-3%,12.5%,-2.1%,5.4%,-2.7%,1.8%,-0.6%,2%,-0.6%,-6.8%,-8%,8.4%,-9.4%,12.2%,-9.4%,25.8%,-8.6%,13.6%,"% Agonist Activity (168 GPCRs [6]; 1 uM): -3.2%; % Antagonist Activity (168 GPCRs [6]; 1 uM): -5.7%; % Agonist Activity (168 GPCRs [6]; 10 uM): -1.8%; % Antagonist Activity (168 GPCRs [6]; 10 uM): 0.3%; % Agonist Activity (168 GPCRs [7]; HRH3, 1 uM): -3.4%; % Antagonist Activity (168 GPCRs [7]; HRH3, 1 uM): 9.5%; % Agonist Activity (168 GPCRs [7]; HRH3, 10 uM): -3.7%; % Antagonist Activity (168 GPCRs [7]; HRH3, 10 uM): 5.8%; % Agonist Activity (168 GPCRs [8]; CHRM2, 1 uM): -0.2%; % Antagonist Activity (168 GPCRs [8]; CHRM2, 1 uM): -18.5%; % Agonist Activity (168 GPCRs [8]; CHRM2, 10 uM): 0.2%; % Antagonist Activity (168 GPCRs [8]; CHRM2, 10 uM): -7.4%; % Agonist Activity (168 GPCRs [9]; MCHR1, 1 uM): 3.9%; % Antagonist Activity (168 GPCRs [9]; MCHR1, 1 uM): -12.2%; % Agonist Activity (168 GPCRs [9]; MCHR1, 10 uM): 3.1%; % Antagonist Activity (168 GPCRs [9]; MCHR1, 10 uM): -18.3%"
